Data as given in patent publication US20250313535A1, “ALPHA 4 BETA 7 INTEGRIN MODULATORS AND USES THEREOF” (DICE MOLECULES SV, INC., priority 2022, published 2025).

Columns and labels:
α4β7 integrin = α4β7 integrin (Homo sapiens (Human), UniProt P13612+P26010); experiment: Integrin Adhesion Assay: Protocol 1 (MAdCAM-coated plate, RPMI-8866 cells, CellTiter GLO readout); format: cell-based
Experimental: α4β7 and α4β1 inhibition was evaluated in vitro using at least one of the following procedures:
Integrin Adhesion Assay: Protocol 1
MAdCAM (R&D Systems, 0.1 ug) was diluted in 50 μL PBS, added to each well of an opaque ELISA plate (Thermo), and incubated overnight at 4° C. Coated plates were washed once with PBS and then blocked with 200 μL of assay buffer (10 mM HEPES, 150 mM NaCl, 1 mM MnCl2, 0.1 mM CaCl2), 1% BSA) for 1 hour at 37° C. and 5% CO2. After incubation, buffer was aspirated from the plates and 50 μL of fresh assay buffer is added. Compounds were added by a compouns dispenser (Tecan) and DMSO concentration was normalized to 1% across each plate. 50 μL of RPMI-8866 cells (2×10^6 per mL) were added to each well and the plates were incubated for 1 hour at 37° C. and 5% CO2. After incubation, plates were allowed to cool to RT for 10 minutes before being washed four times in assay buffer by an automated plate washer (BioTek). After washing, 100 μL of a 1:1 mixture of assay buffer and CellTiter GLO 2.0 reagent (Promega) were added to each well. Plates were mixed for 2 minutes at 1000 rpm and then allowed to incubate an additional 10 minutes before reading out luminescence on a Tecan Spark plate reader. Raw data was converted to percent inhibition based on DMSO only and control compound wells, and curves were analyzed by 4-parameter fit within Dotmatics software.

α4β1 integrin = α4β1 integrin (Homo sapiens (Human), UniProt P05556+P13612); experiment: Integrin Adhesion Assay: Protocol 5 (VCAM-coated plate, RPMI-8866 cells with stable LOF mutation of the ITGB7 gene); format: cell-based; conditions: RPMI-8866 cells with stable LOF mutation of the ITGB7 gene; read-out: Mean IC50 α4β1 KO^b
Summary of the method: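 RPMI-8866 B cells with CRISPR/Cas9 ITGB7 knockout (clonal, verified by flow cytometry) adhered to VCAM-coated wells for 1 h at 37° C in HEPES/NaCl buffer with 1 mM MnCl2, 0.1 mM CaCl2, 1% BSA, 1% DMSO. Bound cells quantified by CellTiter-Glo luminescence after washing; % inhibition versus DMSO and control, 4-parameter fit.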

Chain of α4β7 integrin (P13612 34-1032): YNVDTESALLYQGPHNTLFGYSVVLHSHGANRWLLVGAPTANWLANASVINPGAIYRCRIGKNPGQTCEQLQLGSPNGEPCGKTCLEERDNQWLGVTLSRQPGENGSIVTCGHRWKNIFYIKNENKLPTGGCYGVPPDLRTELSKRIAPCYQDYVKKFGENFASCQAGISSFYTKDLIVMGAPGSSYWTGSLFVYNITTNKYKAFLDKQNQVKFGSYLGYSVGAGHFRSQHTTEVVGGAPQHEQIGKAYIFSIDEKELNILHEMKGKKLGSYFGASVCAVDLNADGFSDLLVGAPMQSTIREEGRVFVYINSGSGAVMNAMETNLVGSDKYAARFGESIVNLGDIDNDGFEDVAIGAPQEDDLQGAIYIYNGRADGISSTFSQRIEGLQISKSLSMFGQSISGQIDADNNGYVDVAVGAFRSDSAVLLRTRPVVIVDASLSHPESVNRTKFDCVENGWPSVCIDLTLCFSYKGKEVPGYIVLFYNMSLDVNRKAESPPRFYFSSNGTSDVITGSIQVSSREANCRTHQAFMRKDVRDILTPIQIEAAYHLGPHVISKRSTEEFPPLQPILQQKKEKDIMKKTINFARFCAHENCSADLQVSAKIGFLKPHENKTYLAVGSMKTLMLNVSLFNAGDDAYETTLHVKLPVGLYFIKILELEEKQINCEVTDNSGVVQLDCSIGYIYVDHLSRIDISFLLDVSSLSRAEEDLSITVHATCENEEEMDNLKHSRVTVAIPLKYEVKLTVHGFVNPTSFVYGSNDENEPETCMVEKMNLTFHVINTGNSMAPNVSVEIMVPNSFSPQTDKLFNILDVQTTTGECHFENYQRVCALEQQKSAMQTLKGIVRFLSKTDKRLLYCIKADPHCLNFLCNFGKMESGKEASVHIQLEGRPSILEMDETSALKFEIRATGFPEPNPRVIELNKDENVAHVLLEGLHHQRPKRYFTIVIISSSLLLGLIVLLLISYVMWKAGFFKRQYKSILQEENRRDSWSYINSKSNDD
Chain of α4β7 integrin (P26010 20-798): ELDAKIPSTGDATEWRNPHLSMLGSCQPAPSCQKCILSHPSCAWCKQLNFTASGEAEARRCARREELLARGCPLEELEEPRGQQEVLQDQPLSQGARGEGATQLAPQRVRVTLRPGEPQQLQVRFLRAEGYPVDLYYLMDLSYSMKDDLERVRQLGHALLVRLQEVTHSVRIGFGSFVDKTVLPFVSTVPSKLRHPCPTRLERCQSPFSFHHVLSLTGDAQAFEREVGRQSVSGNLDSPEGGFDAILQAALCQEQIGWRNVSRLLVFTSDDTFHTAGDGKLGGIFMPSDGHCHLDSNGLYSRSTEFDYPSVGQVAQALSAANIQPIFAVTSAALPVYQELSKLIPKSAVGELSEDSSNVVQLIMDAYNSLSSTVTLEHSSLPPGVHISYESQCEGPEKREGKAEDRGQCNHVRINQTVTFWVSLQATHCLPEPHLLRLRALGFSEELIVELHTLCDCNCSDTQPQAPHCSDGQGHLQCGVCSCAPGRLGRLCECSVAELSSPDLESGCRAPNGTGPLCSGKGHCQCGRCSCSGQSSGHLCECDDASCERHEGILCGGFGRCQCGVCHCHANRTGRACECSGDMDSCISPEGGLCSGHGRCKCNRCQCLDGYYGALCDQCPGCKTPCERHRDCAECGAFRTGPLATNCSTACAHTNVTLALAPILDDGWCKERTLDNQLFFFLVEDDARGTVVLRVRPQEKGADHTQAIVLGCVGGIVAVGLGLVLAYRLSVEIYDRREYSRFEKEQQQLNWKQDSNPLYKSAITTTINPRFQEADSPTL
Chain of α4β1 integrin (P13612 34-1032): as the sequence (P13612 34-1032) above
Chain of α4β1 integrin (P05556 21-798): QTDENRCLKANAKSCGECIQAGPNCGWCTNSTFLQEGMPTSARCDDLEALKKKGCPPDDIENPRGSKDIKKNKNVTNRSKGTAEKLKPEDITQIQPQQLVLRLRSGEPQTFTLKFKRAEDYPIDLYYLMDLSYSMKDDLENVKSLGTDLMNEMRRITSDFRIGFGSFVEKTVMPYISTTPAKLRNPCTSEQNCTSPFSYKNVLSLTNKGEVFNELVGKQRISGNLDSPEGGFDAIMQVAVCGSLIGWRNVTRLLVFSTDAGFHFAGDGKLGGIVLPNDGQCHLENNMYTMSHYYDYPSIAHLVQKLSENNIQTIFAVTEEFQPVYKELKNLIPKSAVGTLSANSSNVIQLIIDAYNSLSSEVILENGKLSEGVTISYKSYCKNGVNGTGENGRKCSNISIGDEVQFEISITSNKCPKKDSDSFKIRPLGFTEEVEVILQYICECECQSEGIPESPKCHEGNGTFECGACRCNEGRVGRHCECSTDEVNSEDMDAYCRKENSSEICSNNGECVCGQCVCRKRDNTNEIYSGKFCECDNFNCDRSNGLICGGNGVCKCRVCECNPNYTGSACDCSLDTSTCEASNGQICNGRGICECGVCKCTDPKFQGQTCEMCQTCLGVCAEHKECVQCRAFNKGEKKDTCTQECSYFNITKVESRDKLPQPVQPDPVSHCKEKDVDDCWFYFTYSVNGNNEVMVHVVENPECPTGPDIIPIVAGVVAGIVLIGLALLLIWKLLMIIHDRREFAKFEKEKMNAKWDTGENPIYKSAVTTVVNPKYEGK

| IC50 (α4β7 integrin) [nM] | IC50 (α4β1 integrin) [nM] | Structure (SMILES) |
| --- | --- | --- |
| 10 to 100 | > 1000 | Cn1c(=O)c(-c2cccc3c(C[C@H](NC(=O)[C@]4(C)CC[C@H](N5CCOC[C@@H]5C(F)(F)F)CC4)C(=O)O)cccc23)c(C(F)(F)F)c2ccccc21 (single isomer, unassigned) [Compound 347] |
| 10 to 100 | > 1000 | Cn1c(C(F)(F)F)cc(C(F)(F)F)c(-c2cccc3c(C[C@H](NC(=O)[C@]4(C)CC[C@@H](N5CCC(F)(F)CC5)CC4)C(=O)O)cccc23)c1=O (single isomer, unassigned) [Compound 405] |
| < 10 | > 1000 | CN(C)Cc1cc(-c2cccc3c(C[C@H](NC(=O)c4c(F)cc(N5CCOC[C@@H]5C(F)(F)F)cc4CN4CCOCC4)C(=O)O)cccc23)c2cnccc2c1 [Compound 294] |
| < 10 | > 1000 | CN(C)Cc1cccc2c(-c3cccc4c(C[C@H](NC(=O)c5c(F)cc(N6CCOC[C@@H]6C(F)(F)F)cc5CN5CCOCC5)C(=O)O)cccc34)nccc12 [Compound 298] |
| < 10 | > 1000 | CN(C)c1ccc2c(-c3cccc4c(C[C@H](NC(=O)c5c(F)cc(N6CCOC[C@@H]6C(F)(F)F)cc5CN5CCOCC5)C(=O)O)cccc34)nccc2c1 [Compound 299] |
| < 10 | > 1000 | CN(C)C1CCN(Cc2cc(N3CCOC[C@@H]3C(F)(F)F)cc(F)c2C(=O)N[C@@H](Cc2cccc3c(-c4cccc5ccncc45)cccc23)C(=O)O)CC1 [Compound 300] |
| 10 to 100 | > 1000 | O=C(N[C@@H](Cc1cccc2c(-c3cccc4ccncc34)cccc12)C(=O)O)c1c(F)cc(N2CCOC[C@@H]2C(F)(F)F)cc1CN1CCC(F)(F)CC1 [Compound 301] |
| 10 to 100 | > 1000 | CN(C)c1ccc2c(c1)c(C(F)(F)F)c(-c1cccc3c(C[C@H](NC(=O)c4c(F)cc(N5CCOC[C@@H]5C(F)(F)F)cc4F)C(=O)O)cccc13)c(=O)n2C [Compound 302] |
| 10 to 100 | > 1000 | Cc1n[nH]c(C)c1-c1cc(F)c(C(=O)N[C@@H](Cc2cccc3c(-c4c(C(F)(F)F)c5ccccc5n(C)c4=O)cccc23)C(=O)O)c(F)c1 [Compound 308] |
| 10 to 100 | > 1000 | Cc1n[nH]c(C)c1-c1ccc(F)c(C(=O)N[C@@H](Cc2cccc3c(-c4c(C(F)(F)F)c5ccccc5n(C)c4=O)cccc23)C(=O)O)c1F [Compound 309] |
| 10 to 100 | > 1000 | Cn1c(=O)c(-c2cccc3c(C[C@H](NC(=O)c4c(F)ccc(-c5cccnc5)c4F)C(=O)O)cccc23)c(C(F)(F)F)c2ccccc21 [Compound 312] |
| 10 to 100 | > 1000 | Cn1c(=O)c(-c2cccc3c(C[C@H](NC(=O)c4c(F)ccc(-c5ccccn5)c4F)C(=O)O)cccc23)c(C(F)(F)F)c2ccccc21 [Compound 313] |
| 10 to 100 | > 1000 | Cc1cncc(C)c1-c1ccc(F)c(C(=O)N[C@@H](Cc2cccc3c(-c4c(C(F)(F)F)c5ccccc5n(C)c4=O)cccc23)C(=O)O)c1F [Compound 314] |
| 10 to 100 | > 1000 | Cc1ccnc(C)c1-c1ccc(F)c(C(=O)N[C@@H](Cc2cccc3c(-c4c(C(F)(F)F)c5ccccc5n(C)c4=O)cccc23)C(=O)O)c1F [Compound 315] |
| 10 to 100 | > 1000 | Cn1c(=O)c(-c2cccc3c(C[C@H](NC(=O)c4c(F)cc(N5CCOC[C@@H]5C(F)(F)F)cc4F)C(=O)O)cccc23)c(C(F)(F)F)c2ccccc21 [Compound 317] |
| 100 to 1000 | > 1000 | Cn1c(=O)c(-c2cccc3c(C[C@H](NC(=O)c4c(F)cc(N5CCCC[C@@H]5C(F)(F)F)cc4F)C(=O)O)cccc23)c(C(F)(F)F)c2ccccc21 [Compound 318] |
| 10 to 100 | > 1000 | CC[C@@H](Nc1cc(F)c(C(=O)N[C@@H](Cc2cccc3c(-c4c(C(F)(F)F)c5ccccc5n(C)c4=O)cccc23)C(=O)O)c(F)c1)C(F)(F)F [Compound 321] |

| IC50 (α4β7 integrin) [nM] | IC50 (α4β1 integrin) [nM] | Structure (SMILES) |
| --- | --- | --- |
| 10 to 100 | 100 to 1000 | Cn1c(=O)c(-c2cccc3c(C[C@H](NC(=O)c4c(F)cc5cnn(CC(F)(F)F)c5c4F)C(=O)O)cccc23)c(C(F)(F)F)c2ccccc21 [Compound 322] |
| 10 to 100 | > 1000 | Cn1c(=O)c(-c2cccc3c(C[C@H](NC(=O)c4c(F)cc(N(CC(F)(F)F)CC(F)(F)F)cc4F)C(=O)O)cccc23)c(C(F)(F)F)c2ccccc21 [Compound 324] |
| > 1000 | > 1000 | Cn1c(=O)c(-c2cccc3c(C[C@H](NC(=O)c4c(F)cc(C(F)(F)F)cc4F)C(=O)O)cccc23)c(C(F)(F)F)c2ccccc21 [Compound 325] |
| 100 to 1000 | > 1000 | Cc1[nH]c2ccccc2c1-c1cc(F)c(C(=O)N[C@@H](Cc2cccc3c(-c4c(C(F)(F)F)c5ccccc5n(C)c4=O)cccc23)C(=O)O)c(F)c1 [Compound 327] |
| 10 to 100 | > 1000 | Cc1cccc(C)c1-c1nc(C)c(C(=O)N[C@@H](Cc2cccc3c(-c4c(C(F)(F)F)c5ccccc5n(C)c4=O)cccc23)C(=O)O)n1C [Compound 330] |
| 10 to 100 | > 1000 | Cn1c(=O)c(-c2cccc3c(C[C@H](NC(=O)c4c(F)cc(N5CC(C)(C)OC(C)(C)C5)cc4F)C(=O)O)cccc23)c(C(F)(F)F)c2ccccc21 [Compound 331] |
| 10 to 100 | > 1000 | Cn1c(=O)c(-c2cccc3c(C[C@H](NC(=O)[C@]4(C)CC[C@@H](N5CCOC[C@@H]5C(F)(F)F)CC4)C(=O)O)cccc23)c(C(F)(F)F)c2ccccc21 [Compound 346] |
| 10 to 100 | > 1000 | CN1CCN(c2cc(F)c(C(=O)N[C@@H](Cc3cccc4c(-c5c(C(F)(F)F)c6ccccc6n(C)c5=O)cccc34)C(=O)O)c(F)c2)CC1 [Compound 350] |
| < 10 | > 1000 | Cn1c(=O)c(-c2cccc3c(C[C@H](NC(=O)c4c(F)cccc4CN4CCCC4)C(=O)O)cccc23)c(C(F)(F)F)c2ccccc21 [Compound 351] |
| 10 to 100 | > 1000 | CN1CCN(Cc2cccc(F)c2C(=O)N[C@@H](Cc2cccc3c(-c4c(C(F)(F)F)c5ccccc5n(C)c4=O)cccc23)C(=O)O)CC1 [Compound 353] |
| 10 to 100 | > 1000 | O=C(N[C@@H](Cc1cccc2c(-c3cccc4ccncc34)cccc12)C(=O)O)c1c(F)cccc1CN1CCCC1 [Compound 356] |
| 10 to 100 | > 1000 | CN(C)Cc1cccc(F)c1C(=O)N[C@@H](Cc1cccc2c(-c3cccc4ccncc34)cccc12)C(=O)O [Compound 357] |
| 10 to 100 | > 1000 | O=C(N[C@@H](Cc1cccc2c(-c3cccc4ccncc34)cccc12)C(=O)O)c1c(F)cccc1CN1CCC(F)(F)CC1 [Compound 358] |
| < 10 | > 1000 | Cn1c(=O)c(-c2cccc3c(C[C@H](NC(=O)c4c(F)cc(N5CCOC[C@@H]5C(F)(F)F)cc4CN4CCCC4)C(=O)O)cccc23)c(C(F)(F)F)c2ccccc21 [Compound 359] |
| < 10 | > 1000 | CN1CCN(Cc2cc(N3CCOC[C@@H]3C(F)(F)F)cc(F)c2C(=O)N[C@@H](Cc2cccc3c(-c4c(C(F)(F)F)c5ccccc5n(C)c4=O)cccc23)C(=O)O)CC1 [Compound 360] |
| 10 to 100 | > 1000 | Cc1cc(N2CCOC[C@@H]2C(F)(F)F)cc(F)c1C(=O)N[C@@H](Cc1cccc2c(-c3c(C(F)(F)F)c4ccccc4n(C)c3=O)cccc12)C(=O)O [Compound 361] |
